Where two headings read alike, the source gives them in different places.
System: interleukin-8 secreted by normal human epidermal keratinocytes (NHEKs)
Assay: Inhibition of interleukin-8 secretion by NHEK cells after stimulation with PMA as irritant agent
Type: cell-based
Settings: 160 nM PMA
From the text: Inhibition of the response of superficial epidermal cells to an irritant agent by assay of the interleukin-8 secreted by normal human epidermal keratinocytes (NHEKS) after stimulation with phorbol 12-myristate 13-acetate (PMA) as irritant agent.
This study uses the test developed by Wilmer [Wilmer, J. L. et al., J. invest. Dermatol., 102: 915-922 (1994)]. This test allows the evaluation of the antiirritant potential of various molecules, on a human keratinocyte (NHEK) cell line. In this test, an irritant situation is mimicked by exacerbating the production of IL-8 of the NHEKs by adding PMA to the culture medium, IL-8 being involved in initiating the keratinocyte irritation. The antiirritant effect of a molecule is then measured by means of its inhibitory action with respect to this exacerbated production.
Normal human epidermal keratinocytes (NHEKs) sold by the company Clonetics and distributed in France by the company TEBU are incubated in the presence of 160 nM of PMA for 24 hours at 37° C. In response to the PMA, the production of the chemotactic agent interleukin-8 (IL-8) is measured by enzymatic assay using an assay kit (Elisa D8050) sold by the company R&D. The absorbance values are measured using a microplate reader (MRX/Dynatech) according to the procedures supplied with the assay kit. To evaluate the antiirritant protective effect of the various compounds, the production of the chemotactic marker IL-8 by the human keratinocytes is measured in the presence of various concentrations of the test compound.
The results are expressed as a percentage of the control values after subtracting the background noise and as a percentage of inhibition of these values obtained in the presence of the compounds.

[1] = Study No. 2 (Comparative Tests), compound at 10 μM, same batch of NHEK cells, 24 hours, read-out: % inhibition of secretion of IL-8

Compound | inhibition at 1 µM (Study No. 1, compound at 1 μM, NHEK, 24 hours at 37° C., read-out: % inhibition of secretion of IL-8 (at 1 μM)) [%] | inhibition at 10 µM (Study No. 1, compound at 10 μM, NHEK, 24 hours at 37° C., read-out: % inhibition of secretion of IL-8 (at 10 μM)) [%] | inhibition at 10 µM [1] [%]
c1ccc(-c2ncn(CCCN3CCOCC3)c2-c2ccccc2)cc1 [Example 1, 4-[3-(4,5-diphenylimidazol-1-yl)-propyl]morpholine] | 86 | 95 | 35
COC(=O)CCCCn1cnc(-c2ccccc2)c1-c1ccccc1 [Example 2, methyl (4,5-diphenyl-imidazole)-1-ylbutyl-4-carboxylate] | – | – | 10
O=C1c2ccccc2C(=O)N1CCCCn1cnc(-c2ccccc2)c1-c1ccccc1 [Example 3, 4-phthalimidebutyl-(4,5-diphenyl-imidazol)-1-yl] | – | – | 39
O=C1c2ccccc2C(=O)N1CCCn1cnc(-c2ccccc2)c1-c1ccccc1 [Example 4, 3-phthalimidepropyl-(4,5-diphenyl-imidazol)-1-yl] | – | – | 37
COC(=O)CCCn1cnc(-c2ccccc2)c1-c1ccccc1 [Example 5, methyl (4,5-diphenyl-imidazol)-1-ylpropyl-3-carboxylate] | – | – | 22
c1ccc(-c2ncn(CCCN3CCCCC3)c2-c2ccccc2)cc1 [Example 6] | – | – | 41
c1ccc(-c2ncn(CCN3CCCCC3)c2-c2ccccc2)cc1 [JP 44 029 199, reference compound] | – | – | < 10

From patent publication US20040162328A1, “Compounds of the family of 3-alkyl-(4,5-diphenyl-imidazol-1-yl) and their use as soothing agents” (priority 2001, published 2004)
